{
  "source": "paper PMC7797213",
  "about": "“Vascular effects of serelaxin in patients with stable coronary artery disease: a randomized placebo-controlled trial” (Cardiovascular Research, 2020)",
  "type_in_all_cases": "in vivo, human",
  "key": {"[1]": {"tested_on": "patients with stable coronary artery disease", "assay": "Applanation tonometry carotid-femoral pulse wave velocity (PWV)", "conditions": "for PWV, absolute value: mean ± SD; for PWV, adjusted mean difference serelaxin versus placebo / PWV, change from baseline (adjusted mean): repeated measures ANCOVA", "description": "Secondary endpoints included: the change from baseline in AIx and pulse wave velocity (PWV) assessed at the end of treatment, Day 30 and Day 180; aortic distensibility (assessed with CMR and PWV methods) at the end of treatment; pharmacokinetics and safety (adverse events, serious adverse events, and vital signs) of 48 h infusion of serelaxin 30 μg/kg/day. The changes in levels of circulating biomarkers of cardiorenal and vascular function during and after treatment with serelaxin were also assessed as part of the exploratory endpoints.\nThe applanation tonometry assessments were performed by blinded operators. Augmentation index [AIx = (augmentation pressure/pulse pressure) × 100], and carotid-femoral PWV were measured by applanation tonometry (Sphygmocor®, AtCor Medical, Australia) at a proximal (carotid artery) and a distal (femoral artery) site of the body, utilizing R-wave gated determination of the time interval between the two measurement points. An averaged carotid pressure waveform (from a 10 s recording) was converted into a corresponding central waveform using a validated transfer function (SphygmoCor®, AtCor, Australia).[27]^,[28]"}, "[2]": {"tested_on": "cystatin C", "assay": "Plasma biomarker cystatin C", "conditions": "for Cystatin C, geo-mean (95% CI): plasma", "description": "(§1) Biomarkers reported include: N-terminal pro-brain natriuretic peptide (NT-proBNP), high-sensitivity troponin T (hsTnT) measured to assess myocardial safety; cystatin C measured to access renal function; the biologically active form of endothelin-1 (1–21), measured to assess vascular function. Venous blood samples were collected at 0 (pre-dose), 24, 48, and 54 h, Day 30, and Day 180. NT-proBNP, hsTnT, and cystatin C samples were collected in EDTA tubes while endothelin-1 samples were collected in EDTA tubes containing aprotinin. Plasma was immediately frozen at −70°C pending analysis in complete patient sets. Commercial biomarker kits were as follows: hsTnT from Roche Diagnostics GmbH, Germany; cystatin C from Gentian, Moss, Norway; and active endothelin-1 […] from Biomedica Medizinprodukte, Vienna, Austria.\n(§2) For the biomarker analyses, baseline was defined as the pre-dose assessment on Day 1. Raw values as well as changes from baseline were summarized by treatment and time. Descriptive statistics included geometric mean and 95% CI. For geometric means of change from baseline, a ratio to baseline was used to determine percentage change by first calculating in the log domain and then back transforming using exponentiation.\n(§3) Baseline corresponds to the value at day 1 pre-dose. For change from baseline, geometric mean and its CI are calculated for the value (post) to baseline ratio."}, "[3]": {"tested_on": "endothelin-1", "assay": "Plasma biomarker endothelin-1", "conditions": "for Endothelin-1, geo-mean (95% CI): plasma", "description": "as §1, §2, §3"}, "[4]": {"assay": "Immunogenicity: serum anti-serelaxin antibodies", "conditions": "Day 1 (baseline) and Day 30, all patients", "description": "Blood was collected on Day 1 (baseline) and post-dose on Day 30 for assessment of immunogenicity. Serum anti-serelaxin antibody concentrations were evaluated using a validated four-tiered assay approach for antibody screening, confirmation, titration, and neutralizing antibody detection, when applicable."}, "[5]": {"tested_on": "patients with stable coronary artery disease", "assay": "CMR left and right ventricular volumes and ejection fraction", "text": "A standardized CMR protocol was acquired on 1.5 T (Siemens Avanto) or 3.0 T (Siemens Skyra and Verio) magnetic resonance imaging (MRI) scanners. The CMR protocol included standard localizers, long- and short-axis cine acquisitions, stress and rest first-pass perfusion, and late gadolinium enhancement (LGE) imaging as previously described.[24] For perfusion imaging, a saturation recovery prepared fast gradient echo sequence was used to acquire dynamic contrast-enhanced CMR during adenosine stress (140–280 µg/kg/min for 3 min) and rest, during first-pass of the IV administered contrast agent (Gadovist, 0.05 mmol/kg, 5 mL/s), followed by 20 mL saline injection (5 mL/s). Three short-axis planes through the left ventricle (basal, mid-ventricular, and apical) were obtained. […]\nCMR image collection, blinding, and handling were managed by an independent imaging contract-research organization (CRO; VirtualScopics, Inc., Rochester, NY, USA). The CMR quantitative analyses were performed by blinded academic readers with >3 years of CMR experience (D.C., A.R., and C.B.). […] Global MPR was calculated from the ratio of global MBF evaluated at stress and at rest (MPR = stress MBF/rest MBF). Global MBF was calculated by averaging the MBF (mL/g/min) for basal, mid, and apical short-axis left ventricular slices. […] The presence or absence of myocardial scar was qualitatively assessed on the LGE images."}, "[6]": {"conditions": "48 h, n=28, listed as serelaxin"}},
  "data": [
    {"substance": "Serelaxin", "values": [
      {"measurement": "PWV, absolute value", "setting": "[1]; 0 h (pre-dose baseline), n=22", "result": "7.45 ± 2.05 (22) meters/second"},
      {"measurement": "PWV, adjusted mean difference serelaxin versus placebo", "setting": "[1]; 24 h", "result": -0.157, "unit": "meters/second"},
      {"measurement": "PWV, adjusted mean difference serelaxin versus placebo", "setting": "[1]; 24 h, listed as serelaxin", "result": "−0.16", "unit": "meters/second"},
      {"measurement": "PWV, change from baseline (adjusted mean)", "setting": "[1]; 24 h, n=19", "result": -0.54, "unit": "meters/second"},
      {"measurement": "PWV, absolute value", "setting": "[1]; 24 h post-dose, n=19", "result": "7.05 ± 1.88 (19) meters/second"},
      {"measurement": "PWV, adjusted mean difference serelaxin versus placebo", "setting": "[1]; 47 h", "result": -0.34, "unit": "meters/second"},
      {"measurement": "PWV, change from baseline (adjusted mean)", "setting": "[1]; 47 h, n=21", "result": -0.26, "unit": "meters/second"},
      {"measurement": "PWV, absolute value", "setting": "[1]; 47 h post-dose, n=22", "result": "7.20 ± 1.92 (22) meters/second"},
      {"measurement": "PWV, absolute value", "setting": "[1]; Day 30, n=23", "result": "7.99 ± 1.82 (23) meters/second"},
      {"measurement": "PWV, adjusted mean difference serelaxin versus placebo", "setting": "[1]; Day 30", "result": -0.06, "unit": "meters/second"},
      {"measurement": "PWV, adjusted mean difference serelaxin versus placebo", "setting": "[1]; Day 30, listed as serelaxin", "result": "−0.06", "unit": "meters/second"},
      {"measurement": "PWV, change from baseline (adjusted mean)", "setting": "[1]; Day 30, n=20", "result": 0.35, "unit": "meters/second"},
      {"measurement": "PWV, absolute value", "setting": "[1]; Day 180, n=23", "result": "8.34 ± 2.11 (23) meters/second"},
      {"measurement": "PWV, adjusted mean difference serelaxin versus placebo", "setting": "[1]; Day 180", "result": 0.12, "unit": "meters/second"},
      {"measurement": "PWV, change from baseline (adjusted mean)", "setting": "[1]; Day 180, n=20", "result": 0.93, "unit": "meters/second"},
      {"measurement": "Cystatin C change from baseline, geometric mean ratio to baseline (95% CI)", "setting": "[2]; 24 h, n=27", "result": "0.92 (0.89, 0.94)"},
      {"measurement": "Cystatin C change from baseline, geometric mean ratio to baseline (95% CI)", "setting": "[2]; 48 h, n=28", "result": "0.93 (0.91, 0.96)"},
      {"measurement": "Cystatin C change from baseline, geometric mean ratio to baseline (95% CI)", "setting": "[2]; [6]", "result": 0.93},
      {"measurement": "Cystatin C change from baseline, geometric mean ratio to baseline (95% CI)", "setting": "[2]; 54 h, n=27", "result": "0.87 (0.80, 0.94)"},
      {"measurement": "Cystatin C change from baseline, geometric mean ratio to baseline (95% CI)", "setting": "[2]; 54 h, n=27, listed as serelaxin", "result": 0.87},
      {"measurement": "Cystatin C change from baseline, geometric mean ratio to baseline (95% CI)", "setting": "[2]; Day 30, n=29", "result": "0.97 (0.93, 1.00)"},
      {"measurement": "Cystatin C change from baseline, geometric mean ratio to baseline (95% CI)", "setting": "[2]; Day 180, n=29", "result": "0.98 (0.89, 1.07)"},
      {"measurement": "Cystatin C, geo-mean (95% CI)", "setting": "[2]; 0 h (pre-dose baseline), n=29", "result": "0.931 (0.876, 0.990) mg/L"},
      {"measurement": "Cystatin C, geo-mean (95% CI)", "setting": "[2]; 0 h (pre-dose baseline), n=29, listed as serelaxin", "result": 0.93, "unit": "mg/L"},
      {"measurement": "Cystatin C, geo-mean (95% CI)", "setting": "[2]; 24 h, n=27", "result": "0.839 (0.788, 0.893) mg/L"},
      {"measurement": "Cystatin C, geo-mean (95% CI)", "setting": "[2]; 48 h, n=28", "result": "0.867 (0.812, 0.926) mg/L"},
      {"measurement": "Cystatin C, geo-mean (95% CI)", "setting": "[2]; 54 h, n=27", "result": "0.796 (0.721, 0.878) mg/L"},
      {"measurement": "Cystatin C, geo-mean (95% CI)", "setting": "[2]; Day 30, n=29", "result": "0.899 (0.842, 0.960) mg/L"},
      {"measurement": "Cystatin C, geo-mean (95% CI)", "setting": "[2]; Day 180, n=29", "result": "0.908 (0.821, 1.004) mg/L"},
      {"measurement": "Endothelin-1 change from baseline, geometric mean ratio to baseline (95% CI)", "setting": "[3]; 24 h, n=27", "result": "0.82 (0.68, 0.99)"},
      {"measurement": "Endothelin-1 change from baseline, geometric mean ratio to baseline (95% CI)", "setting": "[3]; 48 h, n=28", "result": "0.82 (0.70, 0.96)"},
      {"measurement": "Endothelin-1 change from baseline, geometric mean ratio to baseline (95% CI)", "setting": "[3]; [6]", "result": 0.82},
      {"measurement": "Endothelin-1 change from baseline, geometric mean ratio to baseline (95% CI)", "setting": "[3]; 54 h, n=26", "result": "0.84 (0.73, 0.96)"},
      {"measurement": "Endothelin-1 change from baseline, geometric mean ratio to baseline (95% CI)", "setting": "[3]; Day 30, n=29", "result": "0.93 (0.77, 1.13)"},
      {"measurement": "Endothelin-1 change from baseline, geometric mean ratio to baseline (95% CI)", "setting": "[3]; Day 180, n=29", "result": "0.88 (0.69, 1.12)"},
      {"measurement": "Endothelin-1, geo-mean (95% CI)", "setting": "[3]; 0 h (pre-dose baseline), n=29", "result": "0.874 (0.630, 1.212) pmol/L"},
      {"measurement": "Endothelin-1, geo-mean (95% CI)", "setting": "[3]; 24 h, n=27", "result": "0.6732 (0.4626, 0.9796) pmol/L"},
      {"measurement": "Endothelin-1, geo-mean (95% CI)", "setting": "[3]; 48 h, n=28", "result": "0.6835 (0.4647, 1.0054) pmol/L"},
      {"measurement": "Endothelin-1, geo-mean (95% CI)", "setting": "[3]; 54 h, n=26", "result": "0.7535 (0.5098, 1.1138) pmol/L"},
      {"measurement": "Endothelin-1, geo-mean (95% CI)", "setting": "[3]; Day 30, n=29", "result": "0.8145 (0.5881, 1.1279) pmol/L"},
      {"measurement": "Endothelin-1, geo-mean (95% CI)", "setting": "[3]; Day 180, n=29", "result": "0.7664 (0.5436, 1.0806) pmol/L"},
      {"measurement": "Anti-serelaxin antibody status", "setting": "[4]", "result": "anti-serelaxin antibody negative"},
      {"measurement": "Left and right ventricular volumes and ejection fractions, change from baseline compared with placebo", "setting": "[5]; baseline to 47 h, CMR", "result": "no statistically significant changes"},
      {"measurement": "Left ventricular ejection fraction, mean value", "setting": "[5]; remained in the normal range, no significant changes with serelaxin treatment", "result": 63, "unit": "%"}
    ]}
  ]
}
